Settings: in water

O=C(O)c1cc(O)c(O)c(O)c1
Settings | solubility (mole fraction)
298 K | 0.00158
303 K | 0.00176
308 K | 0.00203
313 K | 0.00248
318 K | 0.00311
323 K | 0.00433
328 K | 0.00557
333 K | 0.00712
338 K | 0.00898
343 K | 0.0126

— BigSolDB 2.1
